Experimental data published in BindingDB's records for PubMed 38503166 (University of Paris).
Numbered stars: 1 amine (or outer) side, 2 acyl side, 3 side chain; on linkers, the order of the positions; unused ones are H or OH. Square brackets hold non-standard residues; d marks the D form. Peptide text beside a SMILES is read from it. * marks the point of attachment. Ala(1H-tetrazol-5-yl) = N[C@@H](Cc1nnn[nH]1)C(=O)O; Gly(cPent) = N[C@H](C(=O)O)C1CCCC1; X1 = C[C@H](N[*:1])C(=O)C(=O)[*:2]; Chg = N[C@H](C(=O)O)C1CCCCC1; OAll = C=CCO*

target: Subtilisin-like protease 1 (Plasmodium vivax); experiment: Inhibition of Plasmodium vivax SUB1 catalytic domain

| SMILES | IC50 [µM] |
| --- | --- |
| C=CCOC(=O)CC[C@H](NC(=O)[C@H](Cc1nnn[nH]1)NC(=O)C(=O)[C@H](C)NC(=O)[C@H](C)NC(=O)[C@@H](NC(=O)[C@@H](NC(C)=O)[C@@H](C)CC)[C@@H](C)O)C(N)=O (Ac-ITA[X1][Ala(1H-tetrazol-5-yl)]E(OAll)-NH2) | 2.22 |
| CC(=O)N[C@H](C(=O)N[C@H](C(=O)N[C@@H](C)C(=O)N[C@@H](C)C(=O)C(=O)N[C@@H](CC(=O)O)C(N)=O)[C@@H](C)O)C1CCCC1 (Ac-[Gly(cPent)]TA[X1]D-NH2) | 0.15 |
| C=CCOC(=O)CC[C@H](NC(=O)[C@H](CC(=O)O)NC(=O)C(=O)[C@H](C)NC(=O)[C@H](C)NC(=O)[C@@H](NC(=O)[C@@H](NC(C)=O)C1CCCCC1)[C@@H](C)O)C(N)=O (Ac-[Chg]TA[X1]DE(OAll)-NH2) | 0.15 |

Molecules with a lower IC50, results first:

| IC50 [µM] | SMILES |
| --- | --- |
| 0.1 | C=CCOC(=O)CC[C@H](NC(=O)[C@H](CC(=O)O)NC(=O)C(=O)[C@H](C)NC(=O)[C@H](C)NC(=O)[C@@H](NC(=O)[C@@H](NC(C)=O)[C@@H](C)CC)[C@@H](C)O)C(N)=O (Ac-ITA[X1]DE(OAll)-NH2) |
| 0.07 | C=CCOC(=O)CC[C@H](NC(=O)[C@H](CC(=O)O)NC(=O)C(=O)[C@H](C)NC(=O)[C@H](C)NC(=O)[C@@H](NC(=O)[C@@H](NC(C)=O)C1CCCC1)[C@@H](C)O)C(N)=O |
